In BindingDB's records for doi:10.1016/s0960-894x(03)00648-6 (Ariad Pharmaceuticals, 2003):

Test: Inhibition of Src-mediated dentine resorption in rabbit-osteoclast assay

IC50 [µM]	Structure (SMILES)
48.2	O=P(O)(O)C(O)(CCCNc1nc(Nc2ccccc2)c2ncn(C3CCCC3)c2n1)P(=O)(O)O
5.23	O=P(O)(O)CP(=O)(O)CCCNc1nc(Nc2ccccc2)c2ncn(C3CCCC3)c2n1
9.81	CN(C)CCNc1nc(Nc2ccccc2)c2ncn(C3CCCC3)c2n1
0.041	N[C@H]1CC[C@H](Nc2nc(Nc3ccc(P(=O)(O)CP(=O)(O)O)cc3)c3ncn(C4CCCC4)c3n2)CC1

The next lines start with the molecule.

Structure (SMILES)	IC50 [µM]
N[C@H]1CC[C@H](Nc2nc(Nc3ccc(C(P(=O)(O)O)P(=O)(O)O)cc3)c3ncn(C4CCCC4)c3n2)CC1	22
N[C@H]1CC[C@H](Nc2nc(Nc3ccccc3)c3ncn(C4CCCC4)c3n2)CC1	0.141
N[C@H]1CC[C@H](Nc2nc(Nc3ccc(P(=O)(O)O)c(P(=O)(O)O)c3)c3ncn(C4CCCC4)c3n2)CC1	15.7
